One assay addresses T1, sigma receptor (Cavia porcellus, UniProt Q60492).
T1 construct: A membrane preparation as a sigma receptor obtained from the whole brain of guinea pigs; from tissue; host or cells: guinea pig whole brain membrane preparation
The experiment in a line: Evaluation of affinity to sigma receptors ([3H](+)-pentazocine receptor binding, whole-brain membrane preparation). Also noted: species or system guinea pig. The settings on record: for Ki: Ki from Dixon plot; for inhibition at 1 µM: compound concentration 1 × 10^−6 mol/L; for inhibition at 1 µM / inhibition at 0.1 µM / inhibition at 0.01 µM / inhibition at 0.001 µM / inhibition at 0.0001 µM / inhibition at 10 pM: [3H](+)-pentazocine, 25° C., 60 minutes, read-out: Inhibition rate (%); for inhibition at 0.1 µM: compound concentration 1 × 10^−7 mol/L; for inhibition at 0.01 µM: compound concentration 1 × 10^−8 mol/L; for inhibition at 0.001 µM: compound concentration 1 × 10^−9 mol/L; for inhibition at 0.0001 µM: compound concentration 1 × 10^−10 mol/L; for inhibition at 10 pM: compound concentration 1 × 10^−11 mol/L; for IC50: from logit-log regression of the dose-response curve. The method, then:
The following measurement of radioactivity was performed according to a usual method after the binding reaction had been carried out at 25° C. for 60 minutes.
The inhibition rate was determined by the equation of “100−binding rate”. The binding rate is represented by the following equation:
The IC50 of the test substance was calculated from a regression equation to the dose-response curve. That is to say, the ratio y=(B−N)/(B0−N) wherein a value of (B−N) is a specific binding radioactivity in the presence of a test substance, and a value of (B0−N) is a specific binding radioactivity in the absence of a test substance was first subjected to logit conversion and applied to a logit-log model plotted against the common logarithm of the test substance concentration to create a dose-response curve. […] The regression equation to the dose-response curve used is as follows: […]
Then, for each concentration of the positive substances, the reaction rate was measured while changing the concentration of the test substance in a range including the IC50 to create the Dixon plot, and the Ki value was calculated from the test substance concentration giving an intersection of these straight lines.

Assay [1] deals with rat cerebral cortex neural cells. Kind of assay: Evaluation of neurite outgrowth-promoting activity in central neural cells. In kind it is cell-based. The conditions noted are these: 48 hours after addition, mean±standard error, control 18.0 ± 1.6. As for the experimental part:
The neurite outgrowth-promoting effects of the rat cerebral cortex neural cells on test substances were evaluated by the following method. The cerebral cortex neural cells were isolated from Wistar rats on the 18th day of pregnancy according to the method of Springer Neuroscience Lab Manual. That is to say, under ether anesthesia, a fetal rat was removed from the uterus of a pregnant rat on day 18, and transferred into a petri dish containing HBSS (manufactured by Gibco, Inc.) on ice. The cerebral cortex was cut out under a stereoscopic microscope. The cerebral cortex that had been cut out was dispersed with a neural cells dispersion solution (manufactured by Sumitomo Bakelite Co., Ltd.) to prepare rat cerebral cortex cells.
The resulting cerebral cortex cells were subjected to cell culture. Neurobasal medium (manufactured by Gibco, Inc.) supplemented with B27 Supplement (manufactured by Gibco, Inc.; Fin. 2% v/v), L-glutamine (manufactured by IBCO company; Fin. 0.5 mM) and GlutaMax I (manufactured by Gibco, Inc.; Fin. 0.5 mM) was used as the culture medium. The culture conditions were as follows: 5% CO2, 95% air, 100% humidity, and 37° C. The cells were inoculated to polylysine-coated 8-well slides (manufactured by IWAKI company) so as to have about 2×10^4 cells/well.
Compound [2], compound [3], compound [4], compound [5], compound [6], compound [7], compound [8], compound [9], compound [10], compound [11], and compound [12] (final•concentrations: 0.3 μM and 1.0 μM) were added as respective test substances to the culture solution at about 3 hours after the cell inoculation, and the culture solution with no additives was used as a control.
At 48 hours after the addition of the compounds, the cells were fixed by treatment with 4% paraformaldehyde (manufactured by Wako Pure Chemical Industries) at room temperature for about 30 minutes, and incubated with an anti-α-Tublin antibody (Anti-α-Tubulin Alexa Fluor 488 conjugate) recognizing a microtubule protein, at room temperature for one hour. After washing, the nucleus of the whole cell was stained with a nucleic acid-staining agent DAPI. The cells were observed under a fluorescence microscope at a magnification of 20 times. The stained cell image and the nuclear staining image in the same field of vision were imported into a computer as the image. Using an image analysis software (MethaMorph (registered trademark), Molecular Devises), the image imported into the computer was used to measure the “longest neurite length” that was the length of the longest neurite of individual cell in each field of vision. A cell having a length of the “longest neurite length” of 60 μm or more was defined as a “neurite forming cell” and the neurite forming activity was evaluated by the ratio of the “neurite forming cell” occupied in the number of the cells in the same field of vision. In other words, evaluation was performed by determining the rate of the neurite forming cells using the following equation:
Rate of neurite forming cells=[Number of neurite forming cells/Number of total cells in the same field of vision]×100

For assay [2] the test system is unchanged. Described as above. The conditions noted are these: cultured for 48 hours. It counts as cell-based.

T1 sequence (Q60492 whole entry): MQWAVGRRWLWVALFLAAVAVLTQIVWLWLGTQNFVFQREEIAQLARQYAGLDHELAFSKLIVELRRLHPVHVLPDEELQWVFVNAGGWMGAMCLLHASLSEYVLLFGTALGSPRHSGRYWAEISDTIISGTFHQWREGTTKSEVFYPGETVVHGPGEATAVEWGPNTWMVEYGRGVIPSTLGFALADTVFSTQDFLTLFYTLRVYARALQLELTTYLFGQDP

For orientation: Ki means the dissociation constant of the complex between target and ligand, obtained from inhibition or displacement. Low values mean a stronger hold on the target, high ones a looser hold on the target. For orientation: inhibition means the relative decrease from the control value, in per cent. For orientation: IC50 means the concentration needed to halve the response being measured. Read a high IC50 as weaker potency. In the case of `c1ccc(SCCN2CCCC3CCCCC32)cc1` (stereo not shown) [Compound [3], N-(2-phenylthio)ethyldecahydroquinoline], on sigma receptor, the affinity corresponds to a Ki of 1.6 nM, the inhibition at 1 µM is 99.9%, the inhibition at 0.1 µM was found to be 100% and the inhibition at 0.01 µM was found to be 90.4%. Moreover, at sigma receptor, the inhibition at 0.001 µM came to 46.8%, the inhibition at 0.0001 µM was found to be 6.31%, the inhibition at 10 pM was found to be 2.84% and the IC50 worked out at 1.2 nM. Further, the “Neurite outgrowth-promoting activity (%) (rate of neurite forming cells, longest neurite 60 μm or more)” value (from here on “Neurite outgrowth-promoting activity (%)”) in assay [1] (0.3 μM) came to 32.8 ± 5.3%. In addition, the “Neurite outgrowth-promoting activity (%)” value in assay [1] (1.0 μM) came to 52.6 ± 1.2%.

As to `COc1ccc(CCN2CCN(CCCc3ccccc3)CC2)cc1OC` [Reference compound, SA4503, reference compound], the “Neurite outgrowth-promoting activity (%)” value in assay [1] (0.3 μM) amounted to 44.6 ± 2.2%; in assay [1] (1.0 μM), 58.4 ± 1.8%.

On to `CCN(CCCc1ccc(OC)cc1)C1CCCCC1` [Compound [9], N-[3-(4-methoxyphenyl)propyl]-N-ethylcyclohexylamine], for which the Ki at sigma receptor is 10.5 nM. In addition, the “Neurite outgrowth-promoting activity (%)” value is 31.4 ± 5.8% in assay [1] (0.3 μM) and 59.6 ± 1.0% in assay [1] (1.0 μM).

`CCN(CCSc1ccccc1)C1CCCCC1` [Compound [2], N-(2-(phenylthio)ethyl)-N-ethylcyclohexylamine]: affinity at sigma receptor was put at a Ki of 1 nM. Further, the “Neurite outgrowth-promoting activity (%)” value is 37.4 ± 3.5% in assay [1] (0.3 μM) and 50.6 ± 1.4% in assay [1] (1.0 μM). In assay [2] (final concentration 1 μM), the “ratio of cells extending dendrites compared with no additives (FIG. 1)” value is listed as “obviously higher than that of the case of no additives”. For the same molecule, the “ratio of cells having neurites having the length two or more times the cell body diameter (FIG. 2)” value in assay [2] (final concentrations 0.1 μM, 1 μM, 10 μM) is “significantly increased”.

As to `CCN(CCSc1ccc(OC)c(OC)c1)C1CCCCC1` [Compound [6], N-[2-(3,4-dimethoxy)phenylthio]ethyl-N-ethylcyclohexylamine], at sigma receptor, the Ki came to 3.7 nM, the inhibition at 1 µM stood at 99.9%, the inhibition at 0.1 µM came to 99.1% and the inhibition at 0.01 µM was 98.1%. At sigma receptor, the inhibition at 0.001 µM was determined as 86.6%, the inhibition at 0.0001 µM stood at 19.9%, the inhibition at 10 pM was 1.75% and the IC50 is 0.268 nM. Further, in assay [1] (1.0 μM), the “Neurite outgrowth-promoting activity (%)” value is on record as 40.3 ± 3.4%.

With `CCN(CCOc1ccc(F)cc1)C1CCCCC1` [Compound [11], N-ethyl-N-[2-(4-fluorophenoxy)ethyl]cyclohexylamine], the affinity on sigma receptor, expressed as Ki, was 2.4 nM. Further, the “Neurite outgrowth-promoting activity (%)” value in assay [1] (0.3 μM) came out at 43.5 ± 2.4%; in assay [1] (1.0 μM), 50.7 ± 2.2%.

In the case of `CCN(CCSc1cccc(C(F)F)c1)C1CCCCC1` [Compound [5], N-[2-(3-difluoromethyl)phenylthio]ethyl-N-ethylcyclohexylamine], on sigma receptor, the inhibition at 1 µM turned out to be 97.5%, the inhibition at 0.1 µM was determined as 99.2%, the inhibition at 0.01 µM was 98.6% and the inhibition at 0.001 µM is 92.8%. Besides, at sigma receptor, the inhibition at 0.0001 µM came to 20.8%, the inhibition at 10 pM came to 1.25% and the IC50 came to 0.222 nM. Moreover, the “Neurite outgrowth-promoting activity (%)” value in assay [1] (0.3 μM) is on record as 41.6 ± 3.3%. For the same molecule, the “Neurite outgrowth-promoting activity (%)” value in assay [1] (1.0 μM) is recorded as 50.8 ± 2.8%.

Molecule `CCN(CCCc1ccc(F)cc1)C1CCCCC1` [Compound [10], N-[3-(4-fluorophenyl)propyl]-N-ethylcyclohexylamine] came in with a Ki at sigma receptor of 8.5 nM. Also, the “Neurite outgrowth-promoting activity (%)” value is 26.8 ± 1.1% in assay [1] (0.3 μM) and 57.0 ± 3.0% in assay [1] (1.0 μM).

Take `CCN(CCSc1ccc(F)cc1)C1CCCCC1` [Compound [7], N-[2-(4-fluorophenylthio)ethyl]-N-ethylcyclohexylamine]: on sigma receptor, the Ki came out at 0.8 nM, the inhibition at 1 µM was determined as 97.3%, the inhibition at 0.1 µM turned out to be 96.3% and the inhibition at 0.01 µM amounted to 90%. For the same molecule, on sigma receptor, the inhibition at 0.001 µM was 44.5%, the inhibition at 0.0001 µM stood at 3.43%, the inhibition at 10 pM stood at 0% and the IC50 came to 1.23 nM. In addition, the “Neurite outgrowth-promoting activity (%)” value in assay [1] (0.3 μM) worked out at 30.2 ± 2.5%. In addition, the “Neurite outgrowth-promoting activity (%)” value in assay [1] (1.0 μM) came to 53.3 ± 1.4%.

Consider `CCN(CCCc1ccccc1)C1CCCCC1` [Compound [8], N-(3-phenylpropyl)-N-ethylcyclohexylamine], for which the Ki on sigma receptor amounted to 8.7 nM. Moreover, the entries for the “Neurite outgrowth-promoting activity (%)” value in assay [1] (0.3 μM) and in assay [1] (1.0 μM) were 59.9 ± 1.8% and 61.7 ± 2.0%, respectively.

`CCN(CCSc1cccc(C(F)(F)F)c1)C1CCCCC1` [Compound [4], N-[2-(3-trifluoromethyl)phenylthio]ethyl-N-ethylcyclohexylamine]: at sigma receptor, affinity was put at a Ki of 0.8 nM, the inhibition at 1 µM was found to be 100%, the inhibition at 0.1 µM is 100% and the inhibition at 0.01 µM amounted to 99.7%. Further, at sigma receptor, the inhibition at 0.001 µM is 95.2%, the inhibition at 0.0001 µM is 23.5%, the inhibition at 10 pM came out at 10.4% and the IC50 was 0.189 nM. For the same molecule, in assay [1] (0.3 μM), the “Neurite outgrowth-promoting activity (%)” value is given as 21.4 ± 2.2%. Besides, the “Neurite outgrowth-promoting activity (%)” value in assay [1] (1.0 μM) was found to be 39.4 ± 2.5%.

As for `CCN(CCOc1ccccc1)C1CCCCC1` [Compound [12], N-ethyl-N-(2-phenoxyethyl)cyclohexylamine], the Ki at sigma receptor is 6.6 nM. Further, the results for the “Neurite outgrowth-promoting activity (%)” value in assay [1] (0.3 μM) and in assay [1] (1.0 μM) were 44.2 ± 1.4% and 32.2 ± 1.0%, respectively.

Values taken from patent publication US20110257225A1, “CYCLOHEXYLAMINE DERIVATIVE CONTAINING PHENYL GROUP, AND THERAPEUTIC AGENT FOR DISEASES ACCOMPANIED BY CENTRAL NERVOUS SYSTEM DISORDERS” (M'S Science Corporation, priority 2008, published 2011).
